PubChem BioAssay (NCI)
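Results reflect a 48-hour exposure of cells in 96-well plates to compound at five concentrations. GI50: concentration for 50% inhibition of growth. TGI: total growth inhibition.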

Key:
Assay in all cases: NCI anticancer screen, dose series, 48 h
CAKI-1 renal = tested on: CAKI-1 renal
EKVX NSCLC = tested on: EKVX NSCLC
KM12 colon = tested on: KM12 colon
MALME-3M melanoma = tested on: MALME-3M melanoma
NCI-H23 lung = tested on: NCI-H23 lung
OVCAR-3 ovarian = tested on: OVCAR-3 ovarian
OVCAR-4 ovarian = tested on: OVCAR-4 ovarian
OVCAR-5 ovarian = tested on: OVCAR-5 ovarian
SK-MEL-28 melanoma = tested on: SK-MEL-28 melanoma
UO-31 renal = tested on: UO-31 renal

Structure (SMILES) | TGI (CAKI-1 renal) | TGI (EKVX NSCLC) | TGI (KM12 colon) | TGI (MALME-3M melanoma) | TGI (NCI-H23 lung) | TGI (OVCAR-3 ovarian) | TGI (OVCAR-4 ovarian) | TGI (OVCAR-5 ovarian) | TGI (SK-MEL-28 melanoma) | TGI (UO-31 renal) | GI50 (CAKI-1 renal) | GI50 (EKVX NSCLC) | GI50 (KM12 colon) | GI50 (MALME-3M melanoma) | GI50 (NCI-H23 lung) | GI50 (OVCAR-3 ovarian) | GI50 (OVCAR-4 ovarian) | GI50 (OVCAR-5 ovarian) | GI50 (SK-MEL-28 melanoma) | GI50 (UO-31 renal)
CC(C)CC1c2[nH]c3ccccc3c2C[C@H]2C(=O)NC(CCC(=O)OC(C)(C)C)C(=O)N12 (stereo partly specified) | > 100 µM | > 100 µM | > 100 µM | 62.2 µM | > 100 µM | 41.7 µM | > 100 µM | > 100 µM | > 100 µM | > 100 µM | – | – | – | – | – | – | – | – | – | –
O=S(O)c1cc(Cl)cc(Cl)c1O | – | > 100 µM | > 100 µM | > 100 µM | > 100 µM | > 100 µM | > 100 µM | > 100 µM | > 100 µM | > 100 µM | – | – | – | – | – | – | – | – | – | –
COc1cc(-c2coc3c(OC)c(OC4OC(CO)C(O)C(O)C4O)c(OC)cc3c2=O)cc(OC)c1C (stereo unspecified) | 31 µM | 27.3 µM | 28.3 µM | 29.7 µM | 14.1 µM | > 100 µM | 63.2 µM | 32.7 µM | > 28.4 µM | 21 µM | – | – | – | – | – | – | – | – | – | –
C[C@]12CC(c3ccccc3O1)C(C(=O)NC13CC4CC(CC(C4)C1)C3)C(=O)N2 (stereo partly specified) | > 100 µM | 19.3 µM | > 100 µM | > 100 µM | 61.9 µM | > 100 µM | > 100 µM | 52.7 µM | 64 µM | 44.3 µM | – | – | – | – | – | – | – | – | – | –
CC(=O)OCC1OC(O[C@@H]2c3c(O)c4c(c(O)c3C3=C(NN(c5ccc([N+](=O)[O-])cc5[N+](=O)[O-])[Se]3=O)[C@@]2(C)O)C(=O)c2ccccc2C4=O)C(OC(C)=O)C(OC(C)=O)C1OC(C)=O (stereo partly specified) | 0.722 µM | 0.677 µM | 1.58 µM | 0.355 µM | 0.698 µM | 0.336 µM | 0.634 µM | 2.07 µM | 1.02 µM | 0.548 µM | – | – | – | – | – | – | – | – | – | –
N#C/C=C1\C=CC(O)C(O)C1OC1OC(CO)C(O)C(O)C1O (stereo unspecified) | > 100 µM | > 100 µM | > 100 µM | > 100 µM | > 100 µM | > 100 µM | > 100 µM | > 100 µM | > 100 µM | > 100 µM | – | – | – | – | – | – | – | – | – | –
O=C(O)C1CC(c2ccccc2)=NN1c1ccccc1 (stereo unspecified) | > 100 µM | 88.9 µM | > 100 µM | 96.4 µM | > 100 µM | > 100 µM | > 100 µM | > 100 µM | > 100 µM | > 100 µM | – | – | – | – | – | – | – | – | – | –
CC1(C)COC(/C=C/C2=NC(C)(C)CO2)=N1 | 23.4 µM | 41.8 µM | 37.1 µM | 41.9 µM | 58.1 µM | 30.8 µM | 99.5 µM | 54.4 µM | 38.1 µM | 64.3 µM | – | – | – | – | – | – | – | – | – | –
c1ccc2sc(C3(N4CCCCC4)CCCC3)cc2c1 | 38.4 µM | 22 µM | 23.4 µM | 29.1 µM | 17.6 µM | 21.8 µM | 23.7 µM | 24.7 µM | 28.7 µM | 33.8 µM | – | – | – | – | – | – | – | – | – | –
C=C1C(=O)OC2C1C(OC(=O)/C(C)=C/C)CC1(C)C(=O)CCC(=C)C21 (stereo unspecified) | 17.9 µM | 33.8 µM | 32 µM | 23.3 µM | 30.1 µM | 19.7 µM | 30.3 µM | 32 µM | > 42.8 µM | 13.3 µM | – | – | – | – | – | – | – | – | – | –
COC(=O)C1=CC[C@@H]2C(C(=O)O)=CO[C@@H](OC3OC(CO)C(O)C(O)C3O)[C@H]12 (stereo partly specified) | > 300 µM | > 300 µM | > 300 µM | > 300 µM | > 300 µM | > 300 µM | > 300 µM | > 300 µM | > 300 µM | > 300 µM | – | – | – | – | – | – | – | – | – | –
Fc1ccc(-c2ccc(-c3nnc(-c4cc(F)c(Cl)cc4Cl)o3)o2)cc1Cl | 89.9 µM | > 100 µM | 74.1 µM | 59 µM | > 100 µM | 72.5 µM | > 100 µM | > 100 µM | 68.2 µM | > 100 µM | 33.7 µM | 26.5 µM | 26.1 µM | 18.8 µM | 47.9 µM | 21.9 µM | 50.9 µM | > 100 µM | 24.9 µM | 34.7 µM
O=S(=O)(c1ccc(I)cc1)N(c1ccccc1)S(=O)(=O)C(F)(F)C(F)(F)C(F)(F)C(F)(F)F | 98.2 µM | > 100 µM | > 100 µM | > 100 µM | > 100 µM | 50.9 µM | 68.1 µM | 95.4 µM | > 100 µM | > 100 µM | – | – | – | – | – | – | – | – | – | –
[C-]#[O+].[C-]#[O+].[Ir].[O-]c1cccc2cccnc12 | > 100 µM | > 100 µM | > 100 µM | > 100 µM | > 100 µM | – | > 100 µM | > 100 µM | > 100 µM | > 100 µM | > 100 µM | > 100 µM | > 100 µM | > 100 µM | > 100 µM | – | > 100 µM | > 100 µM | > 100 µM | > 100 µM
CCOC(=O)n1cncc1CC(NC(=O)Cc1c(C(=O)C=C(C)C)[nH]c2ccccc12)C(=O)OC (stereo unspecified) | 34.8 µM | 33.9 µM | 39.1 µM | 32.8 µM | 68.2 µM | 38.9 µM | 37.9 µM | 35 µM | 32.8 µM | 32.3 µM | – | – | – | – | – | – | – | – | – | –
COc1cccc(-c2nc3c(C(=O)NCCN(C)C)cccc3[nH]2)c1 | > 96 µM | 97.5 µM | > 72 µM | 27.6 µM | 50.8 µM | > 75.9 µM | 84.6 µM | 42.7 µM | 31.4 µM | 29.1 µM | – | – | – | – | – | – | – | – | – | –
CC(C)C(N=Cc1ccccc1O)C(=O)O (stereo unspecified) | > 100 µM | > 100 µM | > 100 µM | > 100 µM | > 100 µM | > 100 µM | > 100 µM | > 100 µM | > 100 µM | > 100 µM | – | – | – | – | – | – | – | – | – | –
OC1CC(O)c2c(Cl)sc(Cl)c21 (stereo unspecified) | > 100 µM | > 100 µM | > 100 µM | > 100 µM | 67.3 µM | 70.8 µM | > 100 µM | > 100 µM | > 100 µM | 77.5 µM | – | – | – | – | – | – | – | – | – | –
C[N+]1(C)CCC(C#N)(c2ccccc2)CC1 | > 100 µM | > 100 µM | > 100 µM | > 100 µM | > 100 µM | – | > 100 µM | > 100 µM | > 100 µM | > 100 µM | – | – | – | – | – | – | – | – | – | –
O=C1/C(=C\c2ccc(-c3ccc(Cl)cc3Cl)o2)SC2N=C(COc3ccc(Cl)cc3)NN12 (stereo unspecified) | > 100 µM | 86.5 µM | > 100 µM | > 100 µM | > 100 µM | > 100 µM | > 100 µM | > 100 µM | > 100 µM | > 100 µM | – | – | – | – | – | – | – | – | – | –
COc1ccc(SC(C)(SC)c2ccccn2)c(OC)n1 (stereo unspecified) | > 100 µM | > 100 µM | > 100 µM | > 100 µM | > 100 µM | > 100 µM | > 100 µM | > 100 µM | > 100 µM | > 100 µM | – | – | – | – | – | – | – | – | – | –
CC(O)C(O)C(N)CC=O (stereo unspecified) | > 500 µM | > 500 µM | > 500 µM | > 500 µM | > 500 µM | > 500 µM | > 500 µM | > 500 µM | > 500 µM | > 500 µM | – | – | – | – | – | – | – | – | – | –
CN(C)Cc1ccc(C(=O)Nc2ccc3ncnc(Nc4ccc(Oc5cccc(F)c5)c(Cl)c4)c3c2)cc1 | 3.15 µM | 2.7 µM | 3.21 µM | 3.01 µM | 3.09 µM | 2.92 µM | 3.09 µM | 3.11 µM | 3.09 µM | 2.59 µM | 1.68 µM | 1.3 µM | 1.75 µM | 1.53 µM | 1.58 µM | 1.5 µM | 1.53 µM | 1.64 µM | 1.68 µM | 1.3 µM
